From PMC8280112, “Substrate reduction therapy for Krabbe disease and metachromatic leukodystrophy using a novel ceramide galactosyltransferase inhibitor” (Scientific Reports, 2021)

Legend:
[1] = Mouse pharmacokinetics and brain concentration; type: in vivo; conditions: C57BL/6 mice, single 20 mg/kg IP injection, plasma
Procedure: Blood was collected in K2 EDTA tube to obtain a plasma sample (2000g, 5 min at 4 °C). The brain was removed, rinsed with cold saline, dried on filter paper, weighed, and snap frozen by placing on dry ice. Brains were homogenized in 3 volumes of PBS (pH 7.4) by mini-bead-beater before sample extraction for bioanalysis. […] Pharmacokinetic parameters were calculated using WinNonlin V 8.2 statistics software (Pharsight Corporation).

[2] = molecular target: T1, Human CGT (Homo sapiens, UniProt Q16880); test: CGT enzyme assay (cell-lysate assay); type: biochemical; conditions: lysate of CHO cells expressing human UGT8
T1 construct: made in house; host or cells: CHO cells expressing UGT8; crude M-PER lysate
T1 sequence (Q16880 21-541): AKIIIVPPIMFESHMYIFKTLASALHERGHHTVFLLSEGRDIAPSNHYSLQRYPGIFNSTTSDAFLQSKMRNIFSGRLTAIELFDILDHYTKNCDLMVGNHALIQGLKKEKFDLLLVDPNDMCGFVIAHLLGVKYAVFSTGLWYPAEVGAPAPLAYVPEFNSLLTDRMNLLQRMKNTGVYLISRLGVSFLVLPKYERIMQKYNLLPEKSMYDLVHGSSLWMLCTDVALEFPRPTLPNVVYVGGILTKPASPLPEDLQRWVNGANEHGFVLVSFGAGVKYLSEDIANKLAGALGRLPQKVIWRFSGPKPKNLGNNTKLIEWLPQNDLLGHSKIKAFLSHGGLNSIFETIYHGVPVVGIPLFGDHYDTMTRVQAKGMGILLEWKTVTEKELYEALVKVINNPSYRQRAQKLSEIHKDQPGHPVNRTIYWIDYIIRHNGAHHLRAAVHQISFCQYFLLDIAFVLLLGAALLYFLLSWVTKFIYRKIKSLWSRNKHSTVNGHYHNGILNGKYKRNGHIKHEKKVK
Procedure: Human CGT was obtained from a cell lysate from CHO cells expressing UGT8 (made by BioMarin) prepared in M-PER with proteinase inhibitors (Sigma). Compounds, serially diluted in DMSO and Tween 80, were added to 4 µg/well of CHO/CGT cell lysate to make 20 µL final reaction volume containing 0.5% DMSO and 0.01% Tween 80 in the reaction buffer consisting of 10 µM NDB-(2R-OH)-C6 ceramide (made by BioMarin), 17.5 µM UDP-Galactose (Sigma), 35 µM of dioleoylphosphatidylcholine (DOPC), 5 mM MgCl2, 5 mM MnCl2, 1% BSA, 15 mM KCl, 1 mM EGTA, 8 mM CHAPS, 10 mM HEPES–NaOH pH 7.2. The reaction was incubated at 37 °C for 1 h and stopped by adding 80 µL of methanol:acetonitrile (1:3) with 5 µM N-dodecanoyl-NBD-galactosylceramide (Matreya) internal standard (IS) for 30 min. 200 µL H2O:ACN (1:1) was added for 5 min and then centrifuged at 4000 rpm for 38 min at RT before quantifying NDB-(2R-OH)-C6-galactosylceramide (BioMarin) by LC–MS on a Rapid Fire 360 mass spectrometer (Agilent) coupled with a API4000 + MS in electrospray ionization (ESI) negative mode (Applied Biosystems). These assay conditions were used to screen the Bio-active lipid library (Cayman Cat# 10506).

[3] = test system: wild-type mice; test: PND15 wild-type mice tolerability study: clinical signs, wire hang, NCV, histology; type: in vivo, mouse
Procedure: Animals were euthanized with CO2 followed by cardiac puncture. Blood was collected via cardiac puncture and split for blood chemistry and hematology.
Beginning on the 2nd week of treatment mice were trained weekly for two weeks. Mice are placed on a wire grid, which is shaken to increase wire grabbing, and then immediately turned over. Mice are timed for their ability to hang from the inverted grid for 1 min. Three trials are performed, up to 1 min each, with a 30 s recovery period between trials. After training, mice were tested weekly and times recorded. The test was done with the grid held 10–12 in. over a box of clean shavings.
Brains were collected after removal of the calvarium, weighted, and halved following the midline. The brain was sectioned in the mid-sagittal plane with half placed in 10% NBF. One sciatic nerve and other organs [heart, lung, liver, spleen, kidney, adrenal glands, stomach, small intestine, large intestine, spinal cord (cervical, thoracic, lumbar), skin, testes, and lymph nodes] were also collected and fixed in 10% NBF. Sections of sciatic nerve were also fixed in 2% PFA, 2% glutaraldehyde, embedded, sectioned and stained with Toluidine blue before scanning. Images were analyzed to determine the G-ratio in the […].
Mice were anesthetized with isoflurane and placed on a thermostatically controlled heating pad to maintain body temperature. The recording electrode was inserted into the plantar muscles and a reference electrode was placed in the skin between toes. A pair of subcutaneous stimulating electrodes were placed distally on both sides of the ankle to stimulate the lateral plantar nerve. For proximal stimulation, the electrodes are moved to the level of the sciatic notch, to the depth of the sciatic nerve. […] Six distally-produced CMAPs were recorded and stored. The procedure was repeated using the proximal electrode pair, and current was increased until a CMAP that matches that produced by distal stimulation was evident. Six proximally-produced CMAPs were recorded and stored. The distance between the sites of stimulation was measured. NCV was later calculated using the two latencies and conduction distance. The H wave was recorded during the recording of the distally stimulated CMAPs.

[4] = molecular target: T2, UGT1A (Homo sapiens, UniProt P22309); test: UDP glucuronosyltransferase assay (Eurofins Panlabs); type: biochemical
T2 construct: purchased Eurofins Panlabs Taiwan, Ltd. ITEM 196000
T2 sequence (P22309 26-533): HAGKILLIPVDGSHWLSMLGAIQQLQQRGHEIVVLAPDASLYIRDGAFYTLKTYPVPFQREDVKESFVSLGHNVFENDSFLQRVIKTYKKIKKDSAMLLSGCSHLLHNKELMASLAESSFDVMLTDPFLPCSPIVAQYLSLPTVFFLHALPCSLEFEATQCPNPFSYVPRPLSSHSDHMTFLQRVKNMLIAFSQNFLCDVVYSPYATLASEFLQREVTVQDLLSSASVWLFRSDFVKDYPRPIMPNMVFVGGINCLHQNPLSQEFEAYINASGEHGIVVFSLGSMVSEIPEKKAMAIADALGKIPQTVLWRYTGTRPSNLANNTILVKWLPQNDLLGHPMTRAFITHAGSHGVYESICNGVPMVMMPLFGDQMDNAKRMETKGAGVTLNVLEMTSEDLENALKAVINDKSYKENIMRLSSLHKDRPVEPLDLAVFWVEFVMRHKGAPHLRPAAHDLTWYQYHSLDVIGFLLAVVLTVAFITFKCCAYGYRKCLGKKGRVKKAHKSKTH
Procedure: UGT1A activity was evaluated at Eurofins Panlabs Taiwan, Ltd. ITEM 196000.

[5] = wild-type mice, chronic, 2.3 and 5.4 mg/kg

In the case of `C[C@H]1N(c2ccc(Br)cc2)C(=O)N(c2ccc(Br)cc2)C1(O)c1cccc(OC(F)(F)F)c1` (stereo partly shown) [S202], the AUC(0-inf) [1] is reported as 83800 ng·h/mL, the AUC(0-t) [1] is reported as 59400 ng·h/mL and the Cmax [1] is reported as 8500 ng/mL. The Tmax [1] was 1 h, the half-life ([1]; read-out: Terminal t1/2 (converted)) was 12.2 h and the IC50 [2] was 15 nM. For the same compound, the testes histopathology ([3]; wild-type mice treated from PND15 to PND70) was “germ cell exfoliation with decreased germinal epithelial layers”, the “longer-term (8 week) tolerability” value ([3]; wild-type mice, IP three times per week from PND15, 2.3 mg/kg and 5.4 mg/kg) was “well tolerated with no mortality, change in weight, or grossly abnormal clinical signs” and the “brain and spinal cord histology (H&E, luxol fast blue/PAS)” value ([3]; wild-type mice, chronic treatment from PND15) was “widespread vacuolation”. For the same compound, the “sciatic nerve conduction velocity (NCV)” value [3, 5] was “significant and dose-dependent reduction”, the wire hang test [3, 5] was “impaired performance on the wire hang test” and the gait ([3]; wild-type mice, chronic, 2.3 and 5.4 mg/kg, some mice) was “mild gait abnormality”. The IC50 [4] was over 30000 nM.
